Tests used:
RAW-Blue cells = assay: RAW-Blue colorimetric assay (NF-κB transcription); format: cell-based
Protocol: Measurement of RAW-Blue cell activation was performed similarly to manufacturer instructions. For the NF-κB assay, 1×10^5 RAW-Blue cells were seeded in an optically clear bottomed 96-well plate in 180 μL of complete assay media (identical to B16 media) at a density of 1×10^5 cells/well. For co-culture experiments with RAW-Blue and B16 or β-galactosidase-enriched B16 cells, RAW-Blue cells were seeded at a density of 1×10^5 cells/well and were allowed to adhere for 4 h before the addition of the B16 cells, which were seeded at a density of 1×10^5 cells/well. For co-culture experiments with RAW-Blue and β-galactosidase-enriched B16 cells, RAW-Blue cells were seeded at a density of 1×10^5 cells/well and were allowed to adhere for 4 h before the addition off β-galactosidase-enriched B16 cells, which were seeded at a density of 1×10^5 cells/well.
For experiments with β-gal, a stock solution (500 U/mL, where 1 U=1 μmol/min) was used. A final enzymatic activity of 1 U/well was achieved by addition of 2 μL of the 500 U/mL stock solution to each well. Imiquimod or (6) were prepared as 1.15 and 1.49 mg/mL stock solutions, respectively, in DMSO, and were added to the appropriate wells to achieve the specified final concentrations in each experiment ranging from 0.1 to 10 μM. […] The PNPP assays were incubated for 3 h (37° C., 5% CO2), and the absorbance was measured at 405 nm. […]

[1] = tested on: AT3B-1 prostate cancer cell line (overexpresses P-glycoprotein 1); assay: AT3B-1 cells treated with pro-immunostimulant, absorbance at 420 nm; format: cell-based, rat; conditions: 10 mM dose, 2−200×10^4 cells/well, 72 h
Protocol: To evaluate the disclosed compounds for their effect against multidrug-resistant cells and possible pathogen infection, compound 6 was exposed to a multidrug-resistant AT3B-1 prostate cancer cell line that is known to overexpress P-glycoprotein 1 (P-gp). AT3B-1 cells were plated in an optically clear bottomed 96-well plate at a range of densities (2−200×10^4 cells/well) in 180 μL of complete cell media. Each cell density was tested in triplicate with and without a 10 mM dose of compound 6. For wells with compound 6, 20 μL of a 100 mM stock solution of compound 6 in DMSO was used. As a control experiment, compound 6 was converted by exogenous α-Mannosidase (0.1 U/mL) in triplicate. The plate was incubated (37° C., 5% CO2) for 72 h before measuring the absorbance at 420 nm.
The AT3B-1 cell line (ATCC CRL-2375, rat prostate epithelial malignant carcinoma) were grown in complete culture media composed of Roswell Park Memorial Institute (RPMI) 1640 medium with 4.5 g/L glucose, 2 mM L-glutamine, 10,000 U/mL penstrep, 10 mM HEPES and supplemented with 10% HI-FBS and 1 μM doxorubicin. Media was changed every 3-4 days omitting the doxorubicin, and cells were passaged once per week. Passaging involved changing media, counting, and seeding 3×10^5 cells in 35 mL of new complete media in a new T-175 culture flask.

JAWSII cells = assay: JAWSII ELISA cytokine production (TNF, IL-6, IL-12); format: cell-based, murine
Protocol: Measurement of JAWSII cytokine production was performed similarly to manufacturer instructions. The cytokines analyzed were IL-12, IL-6, and TNF. For the cytokine assays, 1×10^5 JAWSII cells were seeded in an optically clear bottomed 6-well plate in 1 mL of complete assay media (identical to JAWSII growth media) for a density of 1×10^5 cells/well. Cells were incubated for 42 h. For co-culture experiments with JAWSII and B16 or β-galactosidase-enriched B16 cells, JAWSII cells were seeded at a density of 1×10^5 cells/well and allowed to adhere for 42 h before the addition of B16 cells, which were seeded at a density of 1×10^5 cells/well. For co-culture experiments with JAWSII and β-galactosidase-enriched B16 cells, JAWSII cells were seeded at a density of 1×10^5 cells/well and allowed to adhere for 42 h before the addition of β-galactosidase-enriched B16 cells, which were seeded at a density of 1×10^5 cells/well.
For experiments with β-gal, a stock solution (500 U/mL, where 1 U=1 μmol/min) was used. A final enzymatic activity of 1 U/well was achieved by addition of 2 μL of the 500 U/mL stock solution to each well. Stock solutions of Imiquimod or (6) in DMSO (1.15 and 1.49 mg/mL, respectively) were then added to the appropriate wells to achieve a final concentration of 5 μM. The cells were incubated for 16 h (37° C., 5% CO2) before supernatant was collected. Cells were pelletized (200 RCF, 10 min) and removed. Supernatant was analyzed for cytokines without further dilution according to manufacturer instructions for ELISA. Absorbance was analyzed at 450 nm and standard curves were used to determine absolute cytokine concentrations.

In the case of “4-Imiquimod-2-nitrophenyl-galactopyranoside [compound 6]”, the NF-κB transcription (RAW-Blue cells; co-cultures of β-galactosidase-enriched B16 cells and RAW-Blue cells, relative to unaltered B16 co-cultures or RAW-Blue cells alone) is reported as “enhanced”, the RAW-Blue cell activity (RAW-Blue cells; compound alone, relative to compound with 1 U β-galactosidase or Imiquimod, 16 h) is reported as “abrogated” and the “interaction with P-gp” value [1] is reported as “interacting with P-gp”. The “pro-inflammatory cytokine production (TNF, IL-6, IL-12)” value (JAWSII cells; 5 μm, without β-galactosidase) was “not induce significant pro-inflammatory cytokine production”, the pro-inflammatory cytokine production (JAWSII cells; co-cultures of JAWSII and β-galactosidase-enriched B16 melanoma cells) was “resulted in the production of pro-inflammatory cytokines” and the “cytokine production relative to Imiquimod, all three cytokines (TNF, IL-6, IL-12)” value (JAWSII cells; with exogenous β-galactosidase, equimolar Imiquimod) was over 80%.

— patent US11117918B2, “Enzyme-directed immunostimulant and uses thereof” (Washington State University, priority 2016, dated 2021)
